The test addresses T1, sodium-proton exchanger of subtype 3 (NHE3) (Homo sapiens, UniProt P48764).
T1 construct: expressed in transfected cells
T1 sequence (P48764 26-834): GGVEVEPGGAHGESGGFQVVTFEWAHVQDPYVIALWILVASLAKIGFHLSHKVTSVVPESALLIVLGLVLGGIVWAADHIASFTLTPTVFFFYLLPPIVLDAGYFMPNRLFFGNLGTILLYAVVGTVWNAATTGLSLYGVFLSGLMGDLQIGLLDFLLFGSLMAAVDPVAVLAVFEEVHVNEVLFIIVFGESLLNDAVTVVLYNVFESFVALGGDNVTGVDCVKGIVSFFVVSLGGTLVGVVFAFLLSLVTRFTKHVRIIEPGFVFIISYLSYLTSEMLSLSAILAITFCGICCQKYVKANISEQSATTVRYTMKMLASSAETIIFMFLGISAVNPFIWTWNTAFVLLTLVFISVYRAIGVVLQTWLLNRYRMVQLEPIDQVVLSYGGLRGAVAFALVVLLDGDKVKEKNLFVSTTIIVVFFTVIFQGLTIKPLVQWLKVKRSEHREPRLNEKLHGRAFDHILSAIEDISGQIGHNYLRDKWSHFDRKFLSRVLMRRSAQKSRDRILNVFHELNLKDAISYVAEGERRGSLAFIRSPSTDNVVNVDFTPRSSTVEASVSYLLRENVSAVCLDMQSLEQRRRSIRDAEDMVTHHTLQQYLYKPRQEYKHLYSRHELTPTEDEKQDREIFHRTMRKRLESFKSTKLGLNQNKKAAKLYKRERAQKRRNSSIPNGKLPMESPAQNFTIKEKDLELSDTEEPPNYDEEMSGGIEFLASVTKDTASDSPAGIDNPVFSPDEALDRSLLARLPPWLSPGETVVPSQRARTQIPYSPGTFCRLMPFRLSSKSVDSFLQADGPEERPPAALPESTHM
Briefly: Recovery of intracellular pH (pHi) after acidification in LAP1 cells stably expressing NHE3 (BCECF fluorescence, FLIPR). In kind it is cell-based.

Setting [1] is: LAP1 cells stably expressing NHE3, pH recovery after acidification, range 1 is % inhibition at 10 μM, read-out: Activity range (inhibitory effect on NHE3).

Like-named read-outs stand apart in the source and are kept apart here. Some results are limits rather than exact numbers.

Consider `COc1cc(Cl)cc(O[C@H]2c3ccccc3CC[C@@H]2N2CCC[C@@H](N)C2)c1` (racemic) [Example 54, (R)-1-[rac-trans-(1,2)-1-(3-chloro-5-methoxyphenoxy)-1,2,3,4-tetrahydronaphthalen-2-yl]piperidin-3-ylamine], for which the inhibition at 10 µM under setting [1] fell in the range of 20 to 50%.
Regarding `COc1cccc(F)c1O[C@@H]1c2ccccc2C[C@H]1N(C)C1CCNCC1` (racemic) [Example 215, [rac-trans-(1,2)-1-(2-fluoro-6-methoxyphenoxy)indan-2-yl]methylpiperidin-4-ylamine], under setting [1], the IC50 lay within 1 to 10 µM.
For the compound `COC(=O)c1ccc(O[C@H]2c3ccccc3CC[C@@H]2N2CCC[C@@H](N)C2)c(Cl)c1` (racemic) [Example 513, 4-[rac-trans-(1,2)-2-((R)-3-aminopiperidin-1-yl)-1,2,3,4-tetrahydronaphthalen-1-yloxy]-3-chlorobenzoic acid methyl ester], the inhibition at 10 µM under setting [1] was in the range of 20 to 50%.
For `CC(=O)Nc1cccc(O[C@@H]2c3ccccc3C[C@H]2N2CCC(N)C2)c1` (mixture of isomers) [Example 687, N-{3-[rac-trans-(1,2)-2-(3-aminopyrrolidin-1-yl)indan-1-yloxy]phenyl}acetamide], the IC50 under setting [1] was 1 to 10 µM.
`O=[N+]([O-])c1ccc(O[C@H]2c3ccccc3C[C@@H]2N2CCCC2)c(Cl)c1` (racemic) [Example 251, 1-[1-(2-chloro-4-nitrophenoxy)indan-2-yl]pyrrolidine]: the inhibition at 10 µM under setting [1] was in the range of 20 to 50%.
In the case of `CS(=O)(=O)c1ccc(O[C@H]2c3cc(Cl)cc(Cl)c3C[C@@H]2N2CC3C[C@H]2CN3)cc1` [Example 209, (S)-2-[trans-(1S,2S)-4,6-dichloro-1-(4-methanesulfonylphenoxy)indan-2-yl]-2,5-diazabicyclo[2.2.1]heptane], the IC50 under setting [1] was less than 1 µM.
Regarding `N[C@@H]1CCCN([C@H]2CCc3ccccc3[C@@H]2Oc2ccc(F)c(Cl)c2)C1` (racemic) [Example 52, (R)-1-[rac-trans-(1,2)-1-(3-chloro-4-fluorophenoxy)-1,2,3,4-tetrahydronaphthalen-2-yl]piperidin-3-ylamine], the inhibition at 10 µM under setting [1] lay within 20 to 50%.
Consider `NCC1CCN([C@@H]2Cc3ccccc3[C@H]2Oc2cccc3[nH]ccc23)C1` (mixture of isomers) [Example 601, C-{1-[rac-trans-(1,2)-1-(1H-indol-4-yloxy)indan-2-yl]pyrrolidin-3-yl}methylamine], for which the IC50 under setting [1] lay in the range of 1 to 10 µM.
On the same count and under the same terms, in the case of `CCc1ccc(O[C@@H]2c3ccccc3C[C@H]2N2C[C@H]3CNC[C@H]3C2)c(C(C)(C)C)c1` (racemic) [Example 12, 2-[rac-trans-(1,2)-1-(2-tert-butyl-4-ethylphenoxy)indan-2-yl]octahydropyrrolo[3,4-c]pyrrole] it was less than 1 µM; in that of `Cc1cc(O[C@H]2c3cc(F)cc(Cl)c3C[C@@H]2N2CCC[C@@H](N)C2)ccc1S(=O)(=O)C(F)(F)F` (racemic) [Example 90, (R)-1-[rac-trans-(1,2)-4-chloro-6-fluoro-1-(3-methyl-4-trifluoromethanesulfonylphenoxy)indan-2-yl]piperidin-3-ylamine], 1 to 10 µM; in that of `COCCN(C)[C@H]1Cc2c(Cl)cc(Cl)cc2[C@@H]1Oc1ccc(-n2c(C)nnc2C)cc1` [Example 243, {trans-(1S,2S)-4,6-dichloro-1-[4-(3,5-dimethyl-[1,2,4]triazol-4-yl)phenoxy]indan-2-yl}-(2-methoxyethyl)-methylamine], less than 1 µM.
Turning to `CCc1nc(C)cn1-c1ccc(F)c(O[C@H]2c3cc(Cl)cc(Cl)c3C[C@@H]2N2CC[C@@H](O)C2)c1` [Example 725, (R)-1-{trans-(1S,2S)-4,6-Dichloro-1-[5-(2-ethyl-4-methyl-imidazol-1-yl)-2-fluoro-phenoxy]-indan-2-yl}-pyrrolidin-3-ol], the IC50 under setting [1] lay in the range of 1 to 10 µM.
On to `Cc1nnc(C)n1-c1ccc(O[C@H]2c3cc(Cl)cc(Cl)c3C[C@@H]2N2CC[C@@H](O)C2)cc1` [Example 133, (R)-1-{trans-(1S,2S)-4,6-dichloro-1-[4-(3,5-dimethyl-[1,2,4]triazol-4-yl)phenoxy]indan-2-yl}pyrrolidin-3-ol], for which the IC50 under setting [1] is less than 1 µM.
`N#Cc1ccc(O[C@H]2c3ccccc3CC[C@@H]2N2CCC[C@H](N)C2)c(F)c1F` (racemic) [Example 528, 4-[rac-trans-(1,2)-2-((S)-3-aminopiperidin-1-yl)-1,2,3,4-tetrahydronaphthalen-1-yloxy]-2,3-difluorobenzonitrile]: the IC50 under setting [1] is 1 to 10 µM.
For `c1cc(CN2CCCCC2)cc(O[C@@H]2c3ccccc3C[C@H]2N2C[C@H]3CNC[C@H]3C2)c1` (racemic) [Example 14, 2-[rac-trans-(1,2)-1-(3-piperidin-1-ylmethylphenoxy)indan-2-yl]octahydropyrrolo[3,4-c]pyrrole], under setting [1], the IC50 was 1 to 10 µM.
The same measure, in the same setting: in the case of `O=C1OCc2cc(O[C@H]3c4ccccc4C[C@@H]3N3CCCC3)ccc21` (racemic) [Example 571, 5-(rac-trans-(1,2)-2-pyrrolidin-1-ylindan-1-yloxy)-3H-isobenzofuran-1-one] it was 1 to 10 µM.
For `c1ccc2c(c1)C[C@H](N1CCCC1)[C@H]2Oc1ccc(-c2nccs2)cc1` (racemic) [Example 364, 2-[4-(rac-trans-(1,2)-2-pyrrolidin-1-ylindan-1-yloxy)phenyl]thiazole], the IC50 under setting [1] was 1 to 10 µM.
For the compound `CS(=O)(=O)c1ccc(O[C@H]2c3cc(Cl)cc(Cl)c3C[C@@H]2N2CCNC(C(F)(F)F)C2)cc1` (mixture of isomers) [Example 301, 1-[trans-(1S,2S)-4,6-dichloro-1-(4-methanesulfonylphenoxy)indan-2-yl]-3-trifluoromethylpiperazine], the inhibition at 10 µM under setting [1] was 20 to 50%.
Turning to `CN1CCN(c2ccc(Cl)c(O[C@H]3c4cc(Cl)cc(F)c4C[C@@H]3N3CC[C@@H](O)C3)c2)C1=O` [Example 340, 1-{4-chloro-3-[(1S,2S)-6-chloro-4-fluoro-2-((R)-3-hydroxypyrrolidin-1-yl)indan-1-yloxy]phenyl}-3-methylimidazolidin-2-one], the IC50 under setting [1] was less than 1 µM.
The same measure, in the same setting: in the case of `CN1CC(=O)N(c2ccc(Cl)c(O[C@H]3c4cc(Cl)cc(F)c4C[C@@H]3N3CC[C@@H](O)C3)c2)C1=O` [Example 435, 3-{4-chloro-3-[(1S,2S)-6-chloro-4-fluoro-2-((R)-3-hydroxypyrrolidin-1-yl)indan-1-yloxy]phenyl}-1-methylimidazolidine-2,4-dione] it was 1 to 10 µM.
On the same count and under the same terms, in the case of `CS(=O)(=O)c1ccc(O[C@H]2c3cc(Cl)cc(Cl)c3C[C@@H]2N2CC[C@@H](NCCF)C2)cc1` [Example 226, {(R)-1-[trans-(1S,2S)-4,6-dichloro-1-(4-methanesulfonylphenoxy)indan-2-yl]pyrrolidin-3-yl}-(2-fluoroethyl)amine] it was less than 1 µM.
`CC(=O)Nc1ccccc1OC1c2ccccc2CC1N1CCCC1` (racemic) [Example 635, N-[2-(rac-trans-(1,2)-2-pyrrolidin-1-ylindan-1-yloxy)phenyl]acetamide]: the inhibition at 10 µM (LAP1, read-out: Activity range (inhibitory effect on NHE3)) was in the range of 20 to 50%.
As for `Cc1nnc(C)n1-c1ccc(O[C@H]2c3c(Cl)sc(Cl)c3CC[C@@H]2N2CCCC2)c(F)c1` (racemic) [Example 495, 4-[4-((4S,5S)-1,3-dichloro-5-pyrrolidin-1-yl-4,5,6,7-tetrahydrobenzo[c]thiophen-4-yloxy)-3-fluorophenyl]-3,5-dimethyl-4H-[1,2,4]triazole], the IC50 under setting [1] fell in the range of 1 to 10 µM.
